Measured values from patent publication US20230085307A1, “PYRIDAZINONE COMPOUND AND HERBICIDE” (NISSAN CHEMICAL CORPORATION, priority 2019, published 2023).

How the values were obtained:
late watergrass = assay: Test Example 1: herbicidal activity, application before weed generation under submerged conditions (Table 16, symbol A); format: in vivo, late watergrass (Echinochloa oryzicola); details: 320 g/ha applied herbicide
Method in brief: (§1)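 Submerged Wagner pots (alluvial soil, 4 cm water) sown with weed seeds and planted with 2.5-leaf rice seedlings; emulsifiable concentrate diluted in water applied to water surface on sowing day. Held in greenhouse at 25-30 °C; injury scored 0-5 by herbicidal rate after three weeks.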

Japanese bulrush [1] = assay: Test Example 1: herbicidal activity, application before weed generation under submerged conditions (Table 16, symbol B); format: in vivo, Japanese bulrush (Schoenoplectus juncoides); details: 320 g/ha applied herbicide
Method in brief: as §1

Japanese bulrush [2] = assay: Test Example 2: herbicidal activity, application during weed generation under submerged conditions (Table 17, symbol B); format: in vivo, Japanese bulrush (Schoenoplectus juncoides); details: AAH 320 g/ha; application during weed generation, submerged conditions
Method in brief: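 Mixed weed seedlings in alluvial soil under a 4 cm water layer, greenhouse-grown at 25–30° C. Compound given as a diluted emulsion into the floodwater at the 1–2 leaf stage; response graded after three weeks.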

barnyard grass [3] = assay: Test Example 3: herbicidal effect by foliage application, Wagner pot (Table 18, symbol H); format: in vivo, barnyard grass (Echinochloa crus-galli); details: amount of applied herbicide 320 g/ha
Method in brief: (§2)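 Plants were sown in alluvial soil held under 0.1–0.5 cm standing water and grown 14 days in a greenhouse at 25–30 °C. An emulsifiable formulation, water-diluted to the set dose, was then sprayed onto the foliage, and effects were scored three weeks later using previously defined criteria.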

Chinese sprangletop = assay: Test Example 3: herbicidal effect by foliage application, Wagner pot (Table 18, symbol D); format: in vivo, chinese sprangletop (Leptochloa chinensis); details: amount of applied herbicide 320 g/ha
Method in brief: as §2

southern crabgrass [4] = assay: Test Example 4: herbicidal effect by soil treatment (Table 19, symbol F); format: in vivo, southern crabgrass (Digitaria ciliaris); details: amount of applied herbicide 320 g/ha
Method in brief: (§3)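 In this soil treatment, the formulated compound reached the seeds only through the soil: seeds were buried about 1.5 cm deep in sterilized diluvial soil, then the diluted emulsion was sprayed over the surface. After three weeks at 25° C. to 30° C. in a greenhouse, effects were graded on criteria from an earlier test.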

barnyard grass [5] = assay: Test Example 4: herbicidal effect by soil treatment (Table 19, symbol H); format: in vivo, barnyard grass (Echinochloa crus-galli); details: amount of applied herbicide 320 g/ha
Method in brief: as §3

windgrass [6] = assay: Test Example 4: herbicidal effect by soil treatment (Table 19, symbol L); format: in vivo, windgrass (Apera spica-venti); details: amount of applied herbicide 320 g/ha
Method in brief: as §3

velvetleaf [7] = assay: Test Example 4: herbicidal effect by soil treatment (Table 19, symbol M); format: in vivo, velvetleaf (Abutilon theophrasti); details: amount of applied herbicide 320 g/ha
Method in brief: as §3

lambsquarters [8] = assay: Test Example 4: herbicidal effect by soil treatment (Table 19, symbol O); format: in vivo, lambsquarters (Chenopodium album); details: amount of applied herbicide 320 g/ha
Method in brief: as §3

southern crabgrass [9] = assay: Test Example 5: herbicidal effect by foliage application, plastic box (Table 20, symbol F); format: in vivo, southern crabgrass (Digitaria ciliaris); details: foliage application, AAH 320 g/ha, evaluated three weeks after application
Method in brief: (§4)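 Plants were sown into sterilized diluvial soil under about 1.5 cm cover and kept in a greenhouse at 25° C. to 30° C. Fourteen days on, foliage received an even spray of the diluted emulsion. Herbicidal or crop effect was judged three weeks afterwards.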

wild oat = assay: Test Example 5: herbicidal effect by foliage application, plastic box (Table 20, symbol I); format: in vivo, wild oat (Avena fatua); details: foliage application, AAH 320 g/ha, evaluated three weeks after application
Method in brief: as §4

Italian ryegrass = assay: Test Example 5: herbicidal effect by foliage application, plastic box (Table 20, symbol K); format: in vivo, Italian ryegrass (Lolium multiflorum); details: foliage application, AAH 320 g/ha, evaluated three weeks after application
Method in brief: as §4

windgrass [10] = assay: Test Example 5: herbicidal effect by foliage application, plastic box (Table 20, symbol L); format: in vivo, windgrass (Apera spica-venti); details: foliage application, AAH 320 g/ha, evaluated three weeks after application
Method in brief: as §4

velvetleaf [11] = assay: Test Example 5: herbicidal effect by foliage application, plastic box (Table 20, symbol M); format: in vivo, velvetleaf (Abutilon theophrasti); details: foliage application, AAH 320 g/ha, evaluated three weeks after application
Method in brief: as §4

lambsquarters [12] = assay: Test Example 5: herbicidal effect by foliage application, plastic box (Table 20, symbol O); format: in vivo, lambsquarters (Chenopodium album); details: foliage application, AAH 320 g/ha, evaluated three weeks after application
Method in brief: as §4

persian speedwell = assay: Test Example 5: herbicidal effect by foliage application, plastic box (Table 20, symbol R); format: in vivo, Persian speedwell (Veronica persica); details: foliage application, AAH 320 g/ha, evaluated three weeks after application
Method in brief: as §4

Structure (SMILES) | Herbicidal effect on A: late watergrass (grade 0-5) (late watergrass) | Herbicidal effect on B: Japanese bulrush (grade 0-5) (Japanese bulrush [1]) | herbicidal effect rating, B: Japanese bulrush (Japanese bulrush [2]) | herbicidal effect on H: barnyard grass (barnyard grass [3]) | herbicidal effect on D: Chinese sprangletop (Chinese sprangletop) | herbicidal effect on F: southern crabgrass (southern crabgrass [4]) | herbicidal effect on H: barnyard grass (barnyard grass [5]) | herbicidal effect on L: windgrass (windgrass [6]) | herbicidal effect on M: velvetleaf (velvetleaf [7]) | herbicidal effect on O: lambsquarters (lambsquarters [8]) | F: southern crabgrass, herbicidal effect (criteria 0-5) (southern crabgrass [9]) | I: wild oat, herbicidal effect (criteria 0-5) (wild oat) | K: Italian ryegrass, herbicidal effect (criteria 0-5) (Italian ryegrass) | L: windgrass, herbicidal effect (criteria 0-5) (windgrass [10]) | M: velvetleaf, herbicidal effect (criteria 0-5) (velvetleaf [11]) | O: lambsquarters, herbicidal effect (criteria 0-5) (lambsquarters [12]) | R: persian speedwell, herbicidal effect (criteria 0-5) (persian speedwell)
C=C(C)C(=O)Oc1c(C)nn(C)c(=O)c1-c1c(-c2ccc(OC(F)F)cc2)sc2ccc(F)cc12 [2-281] | 5 (Herbicidal rate of 90% or more (almost completely withered)) | 5 (Herbicidal rate of 90% or more (almost completely withered)) | 4 (Herbicidal rate of 70% or more and less than 90%) | 5 (Herbicidal rate of 90% or more (almost completely withered)) | 3 (Herbicidal rate of 40% or more and less than 70%) | 3 (Herbicidal rate of 40% or more and less than 70%) | 4 (Herbicidal rate of 70% or more and less than 90%) | 3 (Herbicidal rate of 40% or more and less than 70%) | 4 (Herbicidal rate of 70% or more and less than 90%) | 5 (Herbicidal rate of 90% or more (almost completely withered)) | 4 (Herbicidal rate of 70% or more and less than 90%) | 4 (Herbicidal rate of 70% or more and less than 90%) | 5 (Herbicidal rate of 90% or more (almost completely withered)) | 5 (Herbicidal rate of 90% or more (almost completely withered)) | 5 (Herbicidal rate of 90% or more (almost completely withered)) | 5 (Herbicidal rate of 90% or more (almost completely withered)) | 5 (Herbicidal rate of 90% or more (almost completely withered))
Cc1nn(C)c(=O)c(-c2c(-c3ccc(OC(F)F)cc3)sc3ccc(F)cc23)c1OC(=O)COc1ccccc1 [2-284] | 3 (Herbicidal rate of 40% or more and less than 70%) | 3 (Herbicidal rate of 40% or more and less than 70%) | 3 (Herbicidal rate of 40% or more and less than 70%) | 5 (Herbicidal rate of 90% or more (almost completely withered)) | 3 (Herbicidal rate of 40% or more and less than 70%) | 4 (Herbicidal rate of 70% or more and less than 90%) | 5 (Herbicidal rate of 90% or more (almost completely withered)) | 4 (Herbicidal rate of 70% or more and less than 90%) | 5 (Herbicidal rate of 90% or more (almost completely withered)) | 5 (Herbicidal rate of 90% or more (almost completely withered)) | 3 (Herbicidal rate of 40% or more and less than 70%) | 4 (Herbicidal rate of 70% or more and less than 90%) | 5 (Herbicidal rate of 90% or more (almost completely withered)) | 4 (Herbicidal rate of 70% or more and less than 90%) | 5 (Herbicidal rate of 90% or more (almost completely withered)) | 5 (Herbicidal rate of 90% or more (almost completely withered)) | 5 (Herbicidal rate of 90% or more (almost completely withered))
Cc1ccccc1C(=O)Oc1c(C)nn(C)c(=O)c1-c1c(-c2ccc(OC(F)F)cc2)sc2ccc(F)cc12 [2-285] | 5 (Herbicidal rate of 90% or more (almost completely withered)) | 3 (Herbicidal rate of 40% or more and less than 70%) | 3 (Herbicidal rate of 40% or more and less than 70%) | 5 (Herbicidal rate of 90% or more (almost completely withered)) | 3 (Herbicidal rate of 40% or more and less than 70%) | 0 (Herbicidal rate of 5% or less (almost no effect)) | 0 (Herbicidal rate of 5% or less (almost no effect)) | 0 (Herbicidal rate of 5% or less (almost no effect)) | 0 (Herbicidal rate of 5% or less (almost no effect)) | 0 (Herbicidal rate of 5% or less (almost no effect)) | 1 (Herbicidal rate of 5% or more and less than 20%) | 1 (Herbicidal rate of 5% or more and less than 20%) | 4 (Herbicidal rate of 70% or more and less than 90%) | 0 (Herbicidal rate of 5% or less (almost no effect)) | 5 (Herbicidal rate of 90% or more (almost completely withered)) | 5 (Herbicidal rate of 90% or more (almost completely withered)) | 5 (Herbicidal rate of 90% or more (almost completely withered))
C=CCOC(=O)Oc1c(C)nn(C)c(=O)c1-c1c(-c2ccc(OC(F)F)cc2)sc2ccc(F)cc12 [2-294] | 5 (Herbicidal rate of 90% or more (almost completely withered)) | 5 (Herbicidal rate of 90% or more (almost completely withered)) | 3 (Herbicidal rate of 40% or more and less than 70%) | 5 (Herbicidal rate of 90% or more (almost completely withered)) | 4 (Herbicidal rate of 70% or more and less than 90%) | 5 (Herbicidal rate of 90% or more (almost completely withered)) | 5 (Herbicidal rate of 90% or more (almost completely withered)) | 4 (Herbicidal rate of 70% or more and less than 90%) | 5 (Herbicidal rate of 90% or more (almost completely withered)) | 5 (Herbicidal rate of 90% or more (almost completely withered)) | 5 (Herbicidal rate of 90% or more (almost completely withered)) | 3 (Herbicidal rate of 40% or more and less than 70%) | 5 (Herbicidal rate of 90% or more (almost completely withered)) | 3 (Herbicidal rate of 40% or more and less than 70%) | 5 (Herbicidal rate of 90% or more (almost completely withered)) | 5 (Herbicidal rate of 90% or more (almost completely withered)) | 5 (Herbicidal rate of 90% or more (almost completely withered))
